Entries after “also recorded” stand apart in the source; their conditions may differ.
Experiments:
[1] = system: primary human lung fibroblasts; experiment: TGFβ-induced myofibroblast formation, αSMA Western blot and cell images, primary human lung fibroblasts; type: cell-based
Procedure: Human lung fibroblasts were treated with various concentrations of 10-hydroxycamptothecin (HCPT) (50 nM or 500 nM) and induced to form scar-forming myofibroblasts by treating with TGFβ.

[2] = system: primary human orbital fibroblasts; experiment: TGFβ-induced myofibroblast formation, αSMA Western blot, primary human orbital fibroblasts; details: HCPT 50 nM to 500 nM, TGFβ
Procedure: Total protein was isolated from 0.5-2×10^6 cells and lysed in 60 mM Tris, pH 6.8, 2% SDS containing 1× protease inhibitor cocktail (Sigma, St. Louis, Mo.). The lysates were passed through a 26 gauge needle 5-6 times to shear genomic DNA. Protein concentrations were determined using the detergent compatible protein assay (BioRad). Total protein (1-10 ug per lane) was subjected to SDS-PAGE. Protein gels were transferred to PVDF membrane (Millipore) and probed with antibodies as specified. Western blot band intensities were quantified using ImageLab software (BioRad). Protein expression was normalized to β-tubulin levels.
Primary human orbital fibroblasts, primary human lung fibroblasts, and primary mouse lung fibroblasts were treated with TGFβ and HCPT (50 nM, 500 nM, and 5000 nM) or SNC (500 nM) or AXD (0.5 μM, 5 μM, and 50 μM) to assess the ability of HCPT to inhibit myofibroblast formation. […] Western blots were performed using cell lysates from the fibroblasts exposed to TGFβ to assess TGFβ-dependent αSMA expression.
Primary human orbital fibroblasts were treated with TGFβ and either 6-formylindolo(3,2-b)carbazole (“FICZ”, 1 μM), Omeprazole (“Ome”, 2 μM, 10 μM, 50 μM, 100 μM, 250 μM, 500 μM), or Flutamide (“Flut”, 2 μM, 10 μM, 50 μM, 100 μM, 250 μM, 500 μM) to assess their ability to inhibit myofibroblast formation. […] Western blots were performed using cell lysates from the fibroblasts exposed to TGFβ to assess TGFβ-dependent αSMA expression. Densitometry analyses of the Western blots were also performed.

[3] = system: primary mouse lung fibroblasts; experiment: TGFβ-induced myofibroblast formation, αSMA Western blot, primary mouse lung fibroblasts; type: cell-based; details: HCPT 50 nM to 500 nM
Procedure: Salinomycin and alexidine served as positive controls for anti-fibrotic activity. Western blots were performed using cell lysates from the fibroblasts exposed to TGFβ to assess TGFβ-dependent αSMA expression.

human fibroblasts = experiment: BrdU incorporation assay (cell proliferation); type: cell-based
Procedure: Human fibroblasts were seeded on a 96-well plate at a density of 1×10^5 cells/well. Cells were treated in triplicate. Cell proliferation was determined using the bromodeoxyuridine (BrdU) assay following manufacturer's instructions. Briefly, cells were treated with a BrdU label at a 1:2000 dilution for 24 h after the initial 72 h treatment with TGFβ+/−drugs. BrdU incorporation was measured using the BrdU Cell Proliferation Assay kit (Calbiochem, San Diego, Calif.) at 450-540 nm using a Varioskan microplate reader.
While salinomycin and other polyether ionophores blocked myofibroblast formation, it was next assessed whether these effects were a result of toxicity and/or due to a block of cell proliferation. Though the treatment doses are relatively low (efficacy in 100-250 nM range), a loss of cell viability could still be a possibility. To test this, human fibroblasts were treated with vehicle (DMSO), 50-250 nM salinomycin alone, TGFβ or TGFβ plus 250 nM salinomycin. As a positive control, fibroblasts were treated with the cytotoxic drug, puromycin. Treated cells were cultured in the presence of alamar blue reagent, which measures mitochondrial oxidation-reduction (REDOX) potential and serves as a quantitative viability sensor. After 72 hours of culture, alamar blue fluorescence was measured to assay cell viability (FIG. 4A). […] It was also tested whether salinomycin affects basal fibroblast proliferation. To address this, cells were treated with vehicle or 250 nm of either salinomycin or narasin for 24 hours in the presence of bromodeoxyuridine (BrdU) to measure cell proliferation ([…], first three bars). […] BrdU was also added to cells treated with TGFβ in the presence or absence of 250 nM salinomycin or narasin (FIG. 4B, last three bars). As expected, TGFβ induced human fibroblast proliferation. Remarkably, both salinomycin and narasin were able to beneficially block TGFβ induced proliferation by 4 to 5 fold, without affecting basal proliferation levels.

[4] = system: TGFβ-induced myofibroblast formation in human fibroblasts; experiment: Western blot of myofibroblast markers αSMA and calponin in TGFβ-treated human (TED orbital) fibroblasts; type: cell-based; details: 250 nM, TGFβ, 72 hours
Procedure: TED fibroblasts were treated with TGFβ (1 ng/ml) in the presence or absence of 10-250 nM salinomycin for 72 hours to allow formation of myofibroblasts. After 72 hours, cells were harvested and analyzed by Western blot. As expected, the fibroblasts robustly responded to TGFβ, expressing high levels of αSMA and calponin (FIG. 2A). […] At 50 nM salinomycin, expression of αSMA was reduced by 4-fold over TGFβ treatment alone. Furthermore, at 250 nM salinomycin, αSMA expression was reduced by approximately 16-fold, to levels at or below untreated fibroblasts. […] Another key role of myofibroblasts in scar formation is the production of collagen. Whether salinomycin could block myofibroblast collagen production was assessed. Cells were treated with TGFβ and salinomycin as above and after 72 hours, culture medium was collected and analyzed for collagen levels using a specific collagen I antibody and slot blot analysis.
To test these four compounds, human fibroblasts were treated with TGFβ in the absence or presence of 250 nM of either salinomycin, narasin, clioquinol or monensin for 72 hours. After treatment, cell lysates were harvested and analyzed for the presence of the myofibroblast markers, αSMA and calponin (FIG. 3B).

Question: `CC[C@@]1(O)C(=O)OCc2c1cc1n(c2=O)Cc2cc3cc(O)ccc3nc2-1` [HCPT, 10-hydroxycamptothecin] was tested. Which “overt toxicity (cell images)” value ([1]; HCPT 50 nM or 500 nM) did it give?
Answer: without being overtly toxic; also recorded: with out being overtly toxic

Question: What about the “formation of myofibroblasts (cell images)” value ([1]; HCPT 50 nM or 500 nM, TGFβ) of the same compound?
Answer: not in samples treated with HCPT or SNC; also recorded: not in samples with HCPT or salinomycin (SNC)

Question: What about the “myofibroblast formation (relative αSMA expression)” value ([1]; HCPT 50 nM to 500 nM, TGFβ) of the same compound?
Answer: potently blocks myofibroblast formation; also recorded: dose-dependent inhibition of αSMA

Question: And the “myofibroblast formation (relative αSMA expression)” value [2]?
Answer: potently blocks myofibroblast formation; also recorded: dose-dependent inhibition of αSMA

Question: What about the “myofibroblast formation (relative αSMA expression)” value [3] of the same compound?
Answer: less effective in blocking myofibroblast formation; also recorded: potently blocks myofibroblast formation

Question: Which results are given for `CC[C@@H](C(=O)O)[C@@H]1O[C@@H]([C@@H](C)[C@H](O)[C@H](C)C(=O)[C@H](CC)[C@H]2O[C@]3(C=C[C@@H](O)[C@]4(CC[C@@](C)([C@H]5CC[C@](O)(CC)[C@H](C)O5)O4)O3)[C@H](C)C[C@@H]2C)[C@@H](C)C[C@@H]1C` [narasin]?
Answer: TGFβ induced proliferation (BrdU incorporation) (human fibroblasts; 250 nM plus TGFβ): significantly blocked TGFβ induced proliferation; basal fibroblast proliferation (BrdU incorporation) (human fibroblasts; 250 nM, without TGFβ): did not affect basal fibroblast proliferation; also recorded: Neither salinomycin nor narasin blocked basal fibroblast proliferation; expression of αSMA and calponin [4]: inhibited expression of αSMA and calponin

— US10548911B2, “Small molecule anti-scarring agents” (UNIVERSITY OF ROCHESTER, priority 2014, dated 2020)
